Tests used:
[1] = elogD, automated reversed phase-HPLC logD (pH 7.4); assay type: physicochemical; conditions: Supelcosil LC-ABZ column
Method: (§1) elogD: An automated reversed phase-HPLC method developed by Lombardo et al. was used for logD (pH 7.4) measurements. All the chromatographic runs were performed on a HP -1100 HPLC ChemStation at the ambient temperature. The HPLC columns used were Supelcosil LC-ABZ, 5 µm, 4.6 mm × 50 mm. A diode array detector was used to monitor signals at 210, 225, 245, and 310 nm. The mobile phase consisted of 15−75% of A and 85−25% of B.
(§2) Mobile phase A: methanol with addition of 0.25% 1-octanol.
(§3) Mobile phase B: 20 mM of MOPS (morpholine−propane−sulfonic acid) buffer prepared in octanol saturated water and 0.25% of n-decylamine.
(§4) Samples were prepared in 1:1 mixture of methanol/water at 100 μg/mL concentration.
The retention of each compound is obtained at three different concentrations of methanol in the mobile phase and extrapolated to 0% methanol (100% water). […]

[2] = Clearance by human liver microsomes (HLM) stability assay; assay type: in vitro ADME; conditions: pH 7.4; pooled human liver microsomes, 1 µM test compound, 37 °C
Method: (§5) HLM Assay: The high throughput human microsomal stability assay was performed in a 384 -well format.
All liquid handling and incubation were conducted with a Biomek FX, equipped with one 3 position Mecour heat exchangers. Pooled human liver microsomes of 50 don ors (Lot: HLM-103) were purchased from BioIVT. Each incubation contained test compound (1 µM), human liver microsomes ([…] CYP protein equivalent to 0.806 mg/mL protein concentration), NADPH (1.3 mM), MgCl 2 (3.3 mM) and potassium phosphate buffer (100 mM at pH 7.4). The final reaction volume was […] containing 0.01% DMSO. The incubations were conducted at 37 °C at various time points (1, 4, 7, 12, 20, 25, 45, 60 min). Cold acetonitrile with mass spectrometry (MS) internal standard (IS, CP-628374) was then added to quench the reaction.
The plates were centrifuged at 3000 rpm for 10 min at 4 °C (Sorvall RC 3C Plus, Thermo Scienti fic, Waltham, MA). The water layer was transferred to the 384 -well plate, sealed and subsequently analy sed using LCeMS/MS. Control plates were prepared in the same manner without adding the NADPH cofactor to monitor any non-CYP catalysed decline. Propranolol (2D6, 1A2 and 2C19 substrate), quinidine (3A4), diclofenac (2C9), verapamil (3A4, 1A2, 2C), amitriptyline (2D6, 2C19) and naloxone (UGT2B7) were used as positive controls on each plate to monitor the activities of the various CYPs in the assay. […]

[3] = RRCK passive permeability assay; assay type: in vitro ADME, canine; conditions: dog, MDCK; read-out: RRCK cell permeability
Method: Aqueous buffer preparation: pH 3: 50 µL of 1N hydrochloric acid was added to 500 mL of deionized water.
The solution was titrated with 1N hydrochloric acid to pH 3, and back titrated with 1N sodium hydroxide. pH 7.4: 100 mM sodium phosphate buffer is made by adding 56.4 g of dibasic sodium phosphate and 10.3 g of monobasic sodium phosphate to 4 L of deionized water. 250 µL of 100 mM sodium phosphate buffer was diluted with 250 µL of deionized water. The solution was titrated with 1N hydrochloric acid to pH 7.4, and back titrated with 1N sodium hydroxide. pH 10: Fisher Scientific pH 10 buffer (SB116-500) containing potassium hydroxide, potassium carbonate, and potassium borate. pH 12.8: 30 mL of 1N NaOH was added to 200 mL of deionized water. The solution was titrated with 1N sodium hydroxide to pH 12.8, and back titrated with 1N hydrochloric acid.
RRCK: Passive permeability assay were carried out using low‐efflux MDCKII cells (Madin–Darby canine kidney cell line) also called Ralph Russ Canine Kidney cell (RRCK).11

[4] = Chemical (pH) stability assay; assay type: physicochemical; conditions: low pH (1.2), 37 °C, up to 4 h
Method: as §1, §2, §3, §4
The retention of each compound is obtained at three different concentrations of methanol in the mobile phase and extrapolated to 0% methanol (100% water).
as §5
All liquid handling and incubation were conducted with a Biomek FX, equipped with one 3 position Mecour heat exchangers. Pooled human liver microsomes of 50 don ors (Lot: HLM-103) were purchased from BioIVT. […]
Assay ready plated: Plate containing 6µL at 30 mM of test compounds in 96 deep well plate (volume = 600 µL). […]

| Compound | logD (sfLogD) | melting point [°C] | chromatographic logD [1] | also measured |
| --- | --- | --- | --- | --- |
| COc1ccc(C2(c3ccc(N4CCOCC4)c(C)c3)COC2)cc1 [8a] | 3.47 | 133 to 135 | 3.68 |  |
| Cc1cc(C2(c3cn(C)c4ccccc34)COC2)ccc1-c1cnc(C(F)(F)F)nc1 [C00009] |  |  |  | microsomal CLint at 1 h, 1 µM [2]: 8.5 µL/min/mg |
| Cn1cc(C2(c3ccc(O)cc3)COC2)c2ccccc21 [6a] | 3.27 | 207 to 209 | 3.28 |  |
| Cc1cc(C2(c3cn(C)c4ccccc34)COC2)ccc1OC1CNC1 [1a] | 1.37 | 100 to 103 | 2.13 |  |
| Cc1cc(C(=O)c2cn(C)c3ccccc23)ccc1O [C00002] |  |  |  | microsomal CLint at 1 h, 1 µM [2]: 18 µL/min/mg |
| COc1ccc(C(=O)c2ccc(-c3c[nH]nc3C(F)(F)F)c(C)c2)cc1 [9b] | 4.74 | 207 to 208 | 4.8 |  |
| COc1ccc(C2(c3ccc(OC4CNC4)c(C)c3)COC2)cc1 [7a] | 1.06 | 108 to 115 | 1.43 |  |
| COc1ccc(C(=O)c2ccc(OC3CNC3)c(C)c2)cc1 [C00008] |  |  |  | microsomal CLint at 1 h, 1 µM [2]: 75 µL/min/mg |
| Cc1cc(C(C)(C)c2cn(C)c3ccccc23)ccc1O [5d] | 3.72 | 110 to 112 | 5.05 |  |
| Cc1cc(C(=O)c2cn(C)c3ccccc23)ccc1Oc1ccccn1 [3b] | 1.92 | 123 to 124 | 3.99 |  |
| Cc1cc(C2(c3cn(C)c4ccccc34)COC2)ccc1Oc1ccccn1 [3a] | 4.36 | 175 to 177 | 4.6 |  |
| Cc1cc(C(C)(C)c2cn(C)c3ccccc23)ccc1OC1CNC1 [1d] | 2.59 | 75 to 80 | 2.9 |  |
| Cc1cc(C(=O)c2cn(C)c3ccccc23)ccc1-c1cnc(C(F)(F)F)nc1 [C00010] |  |  |  | microsomal CLint at 1 µM [2]: < 7 µL/min/mg |
| COc1ccc(C(=O)c2ccc(O)c(C)c2)cc1 [C00006] |  |  |  | microsomal CLint at 1 h, 1 µM [2]: 77.4 µL/min/mg |
| Cc1cc(C2(c3cn(C)c4ccccc34)COC2)ccc1-c1cnc(C(F)(F)F)nc1 [4a] |  | 181 to 182 | 5.1 |  |
| Cc1cc(C2(c3cn(C)c4ccccc34)CCC2)ccc1OC1CNC1 [1e] | 2.81 |  | 3.2 |  |
| Cc1cc(C2(c3cn(C)c4ccccc34)CCC2)ccc1O [5e] | 4.4 | 120 to 121 | 5.4 | Papp [3]: 1 nm/s |

| Compound | logD (sfLogD) | melting point [°C] | chromatographic logD [1] | also measured |
| --- | --- | --- | --- | --- |
| COc1ccc(C(=O)c2ccc(N3CCOCC3)c(C)c2)cc1 [8b] | 3.06 |  | 3.9 |  |
| Cc1cc(C2(c3cn(C)c4ccccc34)COC2)ccc1OC1CNC1 [C00003] |  |  |  | microsomal CLint at 1 µM [2]: < 7 µL/min/mg |
| Cc1cc(C(=O)c2cn(C)c3ccccc23)ccc1O [5b] | 3.33 | 239 to 241 | 3.3 | chemical stability (% compound remaining), in words [4]: poorer stability at low pH |
| COc1ccc(C(=O)c2ccc(O)c(C)c2)cc1 [10b] | 3.49 | 186 to 187 |  |  |
| Cc1cc(C(=O)c2cn(C)c3ccccc23)ccc1OC1CNC1 [C00004] |  |  |  | microsomal CLint at 1 µM [2]: < 7 µL/min/mg |
| COc1ccc(C(=O)c2ccc(OC3CNC3)c(C)c2)cc1 [7b] | 1.21 | 99 to 103 | 1.74 |  |
| Cc1cc(C(=O)c2cn(C)c3ccccc23)ccc1OC1CNC1 [1b] | 1.07 | 70 to 75 |  |  |
| Cc1cc(C2(c3cn(C)c4ccccc34)COC2)ccc1O [5a] | 3.63 | 233 to 235 | 3.73 | chemical stability (% compound remaining), in words [4]: poorer stability at low pH |
| COc1ccc(C2(c3ccc(O)c(C)c3)COC2)cc1 [C00005] |  |  |  | microsomal CLint at 1 h, 1 µM [2]: 80 µL/min/mg |
| COc1ccc(C2(c3ccc(O)c(C)c3)COC2)cc1 [10a] | 3.22 | 140 to 143 | 3.07 |  |
| Cc1cc(Cc2cn(C)c3ccccc23)ccc1O [5c] | 2.79 | 77 to 79 | 4.78 | Papp [3]: 1 nm/s |
| COc1ccc(C2(c3ccc(-c4c[nH]nc4C(F)(F)F)c(C)c3)COC2)cc1 [9a] | 4.62 | 175 to 177 | 4.5 |  |
| Cc1cc(C(=O)c2cn(C)c3ccccc23)ccc1-c1cnc(C(F)(F)F)nc1 [4b] | 4.21 | 185 to 187 | 4.3 |  |
| COc1ccc(C2(c3ccc(OC4CNC4)c(C)c3)COC2)cc1 [C00007] |  |  |  | microsomal CLint at 1 h, 1 µM [2]: 7.5 µL/min/mg |
| Cn1cc(C2(c3ccc(OC4CNC4)cc3)COC2)c2ccccc21 [2a] | 0.99 |  | 1.7 |  |
| Cc1cc(Cc2cn(C)c3ccccc23)ccc1OC1CNC1 [1c] | 1.68 | 80 to 82 | 3.1 |  |
| Cc1cc(C2(c3cn(C)c4ccccc34)COC2)ccc1O [C00001] |  |  |  | microsomal CLint at 1 h, 1 µM [2]: 22.9 µL/min/mg |

Source: PMC8672821, “Investigating 3,3-diaryloxetanes as potential bioisosteres through matched molecular pair analysis” (RSC Medicinal Chemistry, 2021)
